The text below walks through data of ChEMBL document CHEMBL3751673, “Illuminating the binding interactions of galactonoamidines during the inhibition of β-galactosidase (E. coli)” (Bioorg Med Chem, 2016).

Beta-galactosidase, sequence (Q8VNN2 whole entry): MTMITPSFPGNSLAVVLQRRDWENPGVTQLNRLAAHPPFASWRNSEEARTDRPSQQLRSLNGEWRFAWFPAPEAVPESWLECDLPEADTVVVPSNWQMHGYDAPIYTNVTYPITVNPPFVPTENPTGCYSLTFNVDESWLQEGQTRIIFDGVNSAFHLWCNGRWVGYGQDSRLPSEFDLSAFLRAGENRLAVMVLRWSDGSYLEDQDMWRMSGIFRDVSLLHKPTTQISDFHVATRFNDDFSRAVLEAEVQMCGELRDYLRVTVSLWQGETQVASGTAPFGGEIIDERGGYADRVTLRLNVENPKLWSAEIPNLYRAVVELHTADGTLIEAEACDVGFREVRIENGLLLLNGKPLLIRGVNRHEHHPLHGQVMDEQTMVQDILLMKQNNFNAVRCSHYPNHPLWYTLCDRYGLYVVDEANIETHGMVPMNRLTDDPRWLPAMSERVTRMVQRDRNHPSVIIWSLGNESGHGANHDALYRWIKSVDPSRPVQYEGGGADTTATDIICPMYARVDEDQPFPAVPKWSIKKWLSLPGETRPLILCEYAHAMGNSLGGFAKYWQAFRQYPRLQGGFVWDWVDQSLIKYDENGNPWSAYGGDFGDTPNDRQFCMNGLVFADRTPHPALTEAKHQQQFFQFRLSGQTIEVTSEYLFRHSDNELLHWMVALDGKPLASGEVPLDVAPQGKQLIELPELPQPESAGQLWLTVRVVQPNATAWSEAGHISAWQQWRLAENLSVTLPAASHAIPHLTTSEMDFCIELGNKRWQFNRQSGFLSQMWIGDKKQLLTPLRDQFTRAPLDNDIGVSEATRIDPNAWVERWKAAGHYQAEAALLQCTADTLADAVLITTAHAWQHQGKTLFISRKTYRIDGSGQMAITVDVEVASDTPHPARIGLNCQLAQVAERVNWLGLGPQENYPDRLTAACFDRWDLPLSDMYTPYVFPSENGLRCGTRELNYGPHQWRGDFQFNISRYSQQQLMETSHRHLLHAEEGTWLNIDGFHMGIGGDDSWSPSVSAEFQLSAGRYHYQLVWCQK

The assay has as its target Beta-galactosidase (Escherichia coli, UniProt Q8VNN2). Put plainly: Competitive inhibition of Escherichia coli beta-galactosidase assessed as p-nitrophenyl-beta-D-galactopyranoside substrate hydrolysis by UV/Vis spectroscopy.
Consider `Cc1ccc(C/N=C2\N[C@H](CO)[C@H](O)[C@H](O)[C@H]2O)cc1`, for which the inhibition constant (Ki) (commonly a dissociation constant, usually derived from enzyme kinetics or from competition with a known ligand) was determined as 0.06 nM.

As for `Cc1ccc(CNC2=N[C@H](CO)[C@H](O)[C@H](O)C2)cc1`, the Ki was determined as 1.3 nM. The result for `CO[C@@H]1[C@H](O)[C@@H](O)C(NCc2ccc(C)cc2)=N[C@@H]1CO` reads 32 nM.

With `CO[C@H]1C(NCc2ccc(C)cc2)=N[C@H](CO)[C@H](O)[C@@H]1O`, the Ki turned out to be 42 nM.
